Results taken from ChEMBL document CHEMBL1909046, “DrugMatrix in vitro pharmacology data”.

Experiments:
[1] = DRUGMATRIX: Sodium/nucleoside co-transporter radioligand binding (ligand: nitrobenzylthioinosine); format: cell membranes, Cavia porcellus, Dunkin-Hartley, Cerebral cortex, Membrane; conditions: Not Active = under 50% inhibition at 10 µM
Substance-P receptor = Substance-P receptor (Homo sapiens, UniProt P25103); format: cell membranes, Membrane; conditions: cho; also: in other assays of this panel Not Active means under 50% inhibition at 10 µM
Substance-P receptor, sequence (P25103 whole entry): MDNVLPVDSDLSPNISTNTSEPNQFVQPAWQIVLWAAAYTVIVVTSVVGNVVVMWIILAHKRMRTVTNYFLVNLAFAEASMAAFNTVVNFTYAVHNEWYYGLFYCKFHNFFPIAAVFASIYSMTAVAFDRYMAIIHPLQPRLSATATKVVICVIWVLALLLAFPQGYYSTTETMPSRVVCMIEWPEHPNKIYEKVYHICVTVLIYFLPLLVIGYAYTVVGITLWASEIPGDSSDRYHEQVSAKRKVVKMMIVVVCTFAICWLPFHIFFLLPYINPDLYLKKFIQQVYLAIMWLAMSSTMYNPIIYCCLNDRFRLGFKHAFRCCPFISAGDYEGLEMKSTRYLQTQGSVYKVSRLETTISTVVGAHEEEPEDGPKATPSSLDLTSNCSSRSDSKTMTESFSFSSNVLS

[2] = target: Aldo-keto reductase family 1 member B1 (Rattus norvegicus, UniProt P07943); assay: biochemical; format: tissue-based, Lens of camera-type eye;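 also: inhibition of aldose reductase enzyme activity, measured with DL-glyceraldehyde as the substrate; in other assays of this panel Not Active means under 50% inhibition at 10 µM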
Cytochrome P450 2A6 = target: T1, Cytochrome P450 2A6 (Homo sapiens, UniProt P11509); conditions: bti-tn-5b1-4; also: in other assays of this panel Not Active means under 50% inhibition at 10 µM
T1 sequence (P11509 whole entry): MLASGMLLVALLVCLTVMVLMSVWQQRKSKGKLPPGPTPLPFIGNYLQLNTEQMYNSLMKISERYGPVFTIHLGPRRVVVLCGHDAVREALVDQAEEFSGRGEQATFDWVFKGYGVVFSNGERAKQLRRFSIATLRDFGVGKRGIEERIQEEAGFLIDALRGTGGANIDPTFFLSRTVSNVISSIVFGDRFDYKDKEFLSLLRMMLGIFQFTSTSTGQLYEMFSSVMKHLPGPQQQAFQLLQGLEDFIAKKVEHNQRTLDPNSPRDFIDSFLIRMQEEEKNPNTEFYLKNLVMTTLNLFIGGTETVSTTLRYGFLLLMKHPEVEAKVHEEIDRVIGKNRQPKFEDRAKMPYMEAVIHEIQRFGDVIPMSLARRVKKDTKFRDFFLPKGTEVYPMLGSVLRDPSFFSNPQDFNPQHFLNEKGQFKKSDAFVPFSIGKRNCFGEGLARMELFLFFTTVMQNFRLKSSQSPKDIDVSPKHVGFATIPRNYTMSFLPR

B2 bradykinin receptor = target: T2, B2 bradykinin receptor (Homo sapiens, UniProt P30411); format: cell membranes, Membrane; conditions: chem-1; also: in other assays of this panel Not Active means under 50% inhibition at 10 µM
T2 sequence (P30411 whole entry): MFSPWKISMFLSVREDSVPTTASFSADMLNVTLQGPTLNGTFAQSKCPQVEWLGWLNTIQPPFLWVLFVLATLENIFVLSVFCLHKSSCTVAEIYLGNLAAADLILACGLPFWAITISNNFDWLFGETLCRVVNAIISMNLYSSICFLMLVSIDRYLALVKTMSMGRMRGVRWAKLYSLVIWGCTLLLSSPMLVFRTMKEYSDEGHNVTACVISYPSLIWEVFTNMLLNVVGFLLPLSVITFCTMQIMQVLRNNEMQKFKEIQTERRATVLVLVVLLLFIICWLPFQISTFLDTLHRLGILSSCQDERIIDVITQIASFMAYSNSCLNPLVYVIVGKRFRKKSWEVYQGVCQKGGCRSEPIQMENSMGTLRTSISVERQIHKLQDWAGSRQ

Cathepsin G = target: T3, Cathepsin G (Homo sapiens, UniProt P08311); format: tissue-based; conditions: neutrophil
T3 sequence (P08311 whole entry): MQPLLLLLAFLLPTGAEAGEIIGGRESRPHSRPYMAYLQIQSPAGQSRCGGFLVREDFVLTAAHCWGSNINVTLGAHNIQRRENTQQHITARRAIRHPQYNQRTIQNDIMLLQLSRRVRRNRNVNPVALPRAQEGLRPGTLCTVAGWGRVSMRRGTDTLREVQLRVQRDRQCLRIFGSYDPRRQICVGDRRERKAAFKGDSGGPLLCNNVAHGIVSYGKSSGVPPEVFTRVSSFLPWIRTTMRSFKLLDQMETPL

Caspase-1 = target: T4, Caspase-1 (Homo sapiens, UniProt P29466); set-up: species or system Escherichia coli
T4 sequence (P29466 whole entry): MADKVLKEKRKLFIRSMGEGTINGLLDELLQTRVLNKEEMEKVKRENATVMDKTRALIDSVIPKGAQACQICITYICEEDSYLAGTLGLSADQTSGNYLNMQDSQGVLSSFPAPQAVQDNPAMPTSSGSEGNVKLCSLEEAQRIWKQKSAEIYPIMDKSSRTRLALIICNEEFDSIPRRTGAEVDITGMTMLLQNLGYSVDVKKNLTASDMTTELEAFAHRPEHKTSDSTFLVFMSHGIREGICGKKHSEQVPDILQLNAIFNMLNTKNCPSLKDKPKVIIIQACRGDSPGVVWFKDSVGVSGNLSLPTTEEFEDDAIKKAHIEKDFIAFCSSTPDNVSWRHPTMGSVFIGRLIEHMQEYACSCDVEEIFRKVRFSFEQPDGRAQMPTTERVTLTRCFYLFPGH

[3] = target: T5, Nitric oxide synthase, inducible (Mus musculus, UniProt P29477); set-up: species or system Escherichia coli
T5 sequence (P29477 whole entry): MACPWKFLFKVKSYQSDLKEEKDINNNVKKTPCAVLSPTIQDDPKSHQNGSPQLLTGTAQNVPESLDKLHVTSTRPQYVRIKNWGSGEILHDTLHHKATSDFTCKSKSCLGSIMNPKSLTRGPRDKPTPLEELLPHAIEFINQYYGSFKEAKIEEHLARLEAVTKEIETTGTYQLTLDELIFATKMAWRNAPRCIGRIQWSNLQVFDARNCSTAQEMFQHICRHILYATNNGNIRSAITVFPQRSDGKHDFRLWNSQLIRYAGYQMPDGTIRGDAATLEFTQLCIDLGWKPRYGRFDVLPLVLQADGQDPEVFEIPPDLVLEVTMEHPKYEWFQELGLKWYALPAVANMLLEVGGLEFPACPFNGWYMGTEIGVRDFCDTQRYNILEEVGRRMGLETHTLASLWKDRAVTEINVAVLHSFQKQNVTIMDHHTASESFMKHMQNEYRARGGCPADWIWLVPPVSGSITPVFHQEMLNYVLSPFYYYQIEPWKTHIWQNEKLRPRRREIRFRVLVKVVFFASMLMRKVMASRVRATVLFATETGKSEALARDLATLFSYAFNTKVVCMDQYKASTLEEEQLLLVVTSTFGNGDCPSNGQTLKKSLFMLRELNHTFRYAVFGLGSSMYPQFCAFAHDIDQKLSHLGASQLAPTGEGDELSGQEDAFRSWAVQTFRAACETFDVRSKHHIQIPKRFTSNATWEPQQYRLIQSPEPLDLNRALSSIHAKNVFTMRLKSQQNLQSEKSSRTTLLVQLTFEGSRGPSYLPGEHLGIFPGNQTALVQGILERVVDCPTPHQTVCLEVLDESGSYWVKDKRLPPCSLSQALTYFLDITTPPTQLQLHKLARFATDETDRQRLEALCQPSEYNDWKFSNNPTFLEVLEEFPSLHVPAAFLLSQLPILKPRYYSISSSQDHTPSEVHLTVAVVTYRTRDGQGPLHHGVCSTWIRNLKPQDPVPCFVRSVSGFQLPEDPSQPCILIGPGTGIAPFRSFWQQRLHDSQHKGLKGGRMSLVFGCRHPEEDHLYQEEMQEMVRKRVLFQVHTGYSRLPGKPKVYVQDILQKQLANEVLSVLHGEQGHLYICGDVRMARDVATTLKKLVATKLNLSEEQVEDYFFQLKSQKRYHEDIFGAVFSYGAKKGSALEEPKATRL

Structure (SMILES)	IC50 [1]	Ki [1]	IC50 (Substance-P receptor)	IC50 [2]	IC50 (Cytochrome P450 2A6)	Ki (Cytochrome P450 2A6)	IC50 (B2 bradykinin receptor)	IC50 (Cathepsin G)	IC50 (Caspase-1)	IC50 [3]	Ki (B2 bradykinin receptor)	IC50 ([2]; read-out: IC50) [nM]
C[C@]1(Cn2ccnn2)[C@H](C(=O)O)N2C(=O)C[C@H]2S1(=O)=O [TAZOBACTAM]	Not Active	Not Active	Not Active	Not Active	Not Active	Not Active	Not Active	Not Active	Not Active	Not Active	–	–
Cc1cccc(Nc2ccncc2S(=O)(=O)NC(=O)NC(C)C)c1 [TORSEMIDE]	Not Active	Not Active	Not Active	Not Active	Not Active	Not Active	–	Not Active	Not Active	Not Active	Not Active	–
[Cl-].[Cl-].[Zn+2] [ZINC CHLORIDE]	Not Active	Not Active	Not Active	Not Active	Not Active	Not Active	Not Active	Not Active	Not Active	Not Active	–	–
CN1C(C(=O)Nc2ccccn2)=C(O)c2sccc2S1(=O)=O [TENOXICAM]	Not Active	Not Active	Not Active	Not Active	Not Active	Not Active	Not Active	Not Active	Not Active	Not Active	–	–
COc1cc(NS(=O)(=O)c2ccc(N)cc2)nc(OC)n1 [SULFADIMETHOXINE]	Not Active	Not Active	Not Active	Not Active	Not Active	Not Active	Not Active	Not Active	Not Active	Not Active	–	–
CC(=O)N[C@@H]1[C@H](Oc2c3cc4cc2Oc2ccc(cc2Cl)[C@@H](O[C@@H]2O[C@@H](CO)[C@@H](O)[C@H](O)[C@@H]2NC(C)=O)[C@@H]2NC(=O)[C@H](NC(=O)[C@@H]4NC(=O)[C@H]4NC(=O)[C@@H](Cc5ccc(c(Cl)c5)O3)NC(=O)[C@H](N)c3ccc(O)c(c3)Oc3cc(O)cc4c3)c3ccc(O)c(c3)-c3c(O[C@H]4O[C@H](CO)[C@@H](O)[C@@H](O)[C@@H]4O)cc(O)cc3[C@@H](C(=O)O)NC2=O)O[C@@H](CO)[C@@H](O)[C@@H]1O	Not Active	Not Active	Not Active	Not Active	Not Active	Not Active	Not Active	Not Active	Not Active	Not Active	–	–
O=C1CCC(N2C(=O)c3ccccc3C2=O)C(=O)N1 (stereo not given) [THALIDOMIDE]	Not Active	Not Active	Not Active	Not Active	Not Active	Not Active	Not Active	Not Active	Not Active	Not Active	–	–
CC[C@]1(O)C[C@@H]2CN(CCc3c([nH]c4ccccc34)[C@@](C(=O)OC)(c3cc4c(cc3OC)N(C)[C@H]3[C@@](O)(C(=O)OC)[C@H](OC(C)=O)[C@]5(CC)C=CCN6CC[C@]43[C@@H]65)C2)C1 [VINBLASTINE]	Not Active	Not Active	Not Active	Not Active	Not Active	Not Active	Not Active	Not Active	Not Active	Not Active	–	–
CC1=C(CC(=O)O)c2cc(F)ccc2/C1=C\c1ccc([S+](C)[O-])cc1 (stereo not given)	Not Active	Not Active	Not Active	–	Not Active	Not Active	Not Active	Not Active	Not Active	Not Active	–	435
CC(C)C[C@H](NC(=O)[C@@H](O)[C@H](N)Cc1ccccc1)C(=O)O [UBENIMEX]	Not Active	Not Active	Not Active	Not Active	Not Active	Not Active	Not Active	Not Active	Not Active	Not Active	–	–
CC(=O)CC(c1ccccc1)c1c(O)c2ccccc2oc1=O (stereo not given) [WARFARIN]	Not Active	Not Active	Not Active	Not Active	Not Active	Not Active	Not Active	Not Active	Not Active	Not Active	–	–
COCCCOc1ccnc(C[S+]([O-])c2nc3ccccc3[nH]2)c1C (stereo not given) [RABEPRAZOLE]	Not Active	Not Active	Not Active	Not Active	Not Active	Not Active	Not Active	Not Active	Not Active	Not Active	–	–
N[C@H](CSC(=S)NCc1ccccc1)C(=O)O	Not Active	Not Active	Not Active	Not Active	Not Active	Not Active	Not Active	Not Active	Not Active	Not Active	–	–
[H]/N=C(/N)N[C@H]1[C@H](O)[C@@H](O)[C@H](O[C@@H]2O[C@@H](C)[C@](O)(C=O)[C@H]2O[C@@H]2O[C@@H](CO)[C@H](O)[C@@H](O)[C@@H]2NC)[C@@H](N/C(N)=N\[H])[C@@H]1O [STREPTOMYCIN]	Not Active	Not Active	Not Active	Not Active	Not Active	Not Active	Not Active	Not Active	Not Active	Not Active	–	–
